Test results as given in patent EP4650353A1 (Shanghai Institute of Materia Medica, Chinese Academy of …, priority 2023, dated 2024).

Legend:
human GLP-1 receptor = target: T1, human GLP-1 receptor (Homo sapiens, UniProt P43220); test: GLP-1 receptor-mediated agonist activity: cAMP level in hGLP-1R/HEK293 cell line (HTRF); assay type: cell-based; settings: cAMP levels in hGLP-1R/HEK293 cell line; Table 1; read-out: determined EC50
T1 construct: HA (N); expressed in transfected cells

hGLP-1R KI mice = test: Diet inhibition by Tris salts (food intake after single oral dose); assay type: in vivo; settings: 30 mg/kg; for duration of the food intake reducing effect / food intake: Tris salt, single oral administration
Procedure: Mouse model: hGLP-1R KI mice, 8 female mice per experimental group.
Experimental procedure: Mice were separated into cages and fasted 6 hours in advance, and were given drugs by oral gavage at the beginning of the night cycle (7:00 PM). The weight of food in each cage was weighed at 0, 2.5, 5, 12 (7:00 AM at the beginning of the day cycle), and 24 hours after drug administration to calculate the food intake of mice.

β-arrestin 1 = test: NanoBiT recruitment of β-arrestin 1 by GLP-1R in HEK293 cells; assay type: cell-based; settings: Homo sapiens, read-out: maximum agonistic effect (Emax) recruiting β-arrestin 1;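 further: 100% equals the maximal response of endogenous GLP-1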
Excerpt: (§1) The Promega NanoBiT protein-protein reaction system was used to detect the recruitment of β-arrestin 1 and β-arrestin 2 by GLP-1R. The NanoBit Protein-Protein Reaction System was a dual-subunit system based on NanoLuc luciferase that could be used to detect protein-protein interactions in cells. The LgBiT (17.6 kDa) and SmBiT (11 amino acids) subunits were fused to the proteins of interest, respectively. When the proteins of interest interact, the two subunits came into close proximity to form an enzyme with catalytic activity, which could catalyze the luminescence of the luciferase substrate. Firstly, the human GLP-1R gene was connected to the N-terminus of LgBit, the β-arrestin 1/2 gene was cloned to the C-terminus of SmBit, and the fusion protein was introduced into the pcDNA3.0 vector to construct plasmids expressing hGLP-1R-LgBit and SmBit-β-arrestin 1/2 fusion proteins. The hGLP-1R-LgBit plasmid and SmBit-β-arrestin 1 (or SmBit-β-arrestin 2) plasmid were co-transfected into HEK293 cells at a ratio of 1 µg plasmid/2×10^6 cells. Immediately after transfection, the cells were added to a 96-well white-bottom plate at a density of 4×10^5 cells/well, and the cells were cultured in an incubator (37°C, 5% CO2) for 20 hours.
(§2) After 20 hours, the liquid in the wells was discarded, 40 µL of fresh culture medium (DMEM+0.2% BSA, m/v) was added first, and then 10 µL of Nano-Glo Live Cell detection solution (Promega, #N2011) was added, and then the cells were placed in an incubator and incubated for 10 minutes. The compound was dissolved in DMSO and prepared into a storage solution with a concentration of 10mM. The experiment started with a concentration of 100µM. […] After the cells were incubated for 10 min, 25 µL of culture medium containing the compound was added to each well and incubated at room temperature for 5 min. The fluorescence signal was then detected using an Envision 2104 multi-function microplate reader (PerkinElmer). All samples were tested in triplicate, and the fluorescence signal ratio and the corresponding compound concentration were analyzed using GraphPad Prism 8 software.

β-arrestin 2 = test: NanoBiT recruitment of β-arrestin 2 by GLP-1R in HEK293 cells; assay type: cell-based; settings: Homo sapiens, read-out: maximum agonistic effect (Emax) recruiting β-arrestin 2;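 further: 100% equals the maximal response of endogenous GLP-1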
Excerpt: as §1, §2

[1] = tested on: hGLP-1 receptor knock-in mice; test: Long-term administration in high-fat diet fed hGLP-1R mice for weight loss; assay type: in vivo; settings: ammonium salt
Procedure: (§3) Genetically engineered hGLP-1R gene knock-in mice, male, 8-10 weeks old, specific pathogen free (SPF) grade, were purchased from Biocytogen Jiangsu Gene Biotechnology Co., Ltd. All experimental animals were housed in the SPF-level environment of the National Compound Sample Library animal room, with a temperature of 24±2°C, a relative humidity of 40-60%RH, an air cleanliness level of 7, and a day and night light-dark cycle of 12h/12h; they were continuously supplied with cobalt-60 radiation-sterilized complete mouse granular feed (Shanghai Shilin Biotechnology Co., Ltd., maintenance feed for rats and mice), and were allowed to drink tap water (sterilized with high-pressure steam) without interruption, and were allowed to drink it freely. The cages were transparent polyetherimide cages (Suzhou Fengshi Experimental Animal Equipment Co., Ltd., CP-8 mouse cages), and the bedding was corn cobs (Tezhou Gumei Agricultural Technology Co., Ltd., used after high-pressure steam sterilization). There were 3-5 animals in each cage, and the cage card indicated the IACUC approval number, experiment number, experiment start time, person in charge, experimenter, animal source, group and animal number. The purchased mice were adapted to this breeding environment for at least 7 days before being used in experiments. The animal use methods in this study were approved by the IACUC Committee of the Shanghai Institute of Materia Medica.
The mice were weighed every day, and 24 hours after the last administration, the body fat and muscle content of the mice were detected using a Bruker desktop nuclear magnetic resonance spectrometer (model LF90II). • (4) Experimental results

[2] = tested on: hGLP-1 receptor knock-in mice; test: Oral glucose tolerance test in mice; assay type: in vivo
Procedure: as §3
60 minutes after oral administration, blood glucose was measured again as zero-point blood glucose. Then, 2 g/kg of sugar was orally administered, and blood glucose was measured using a blood glucose meter 15 minutes, 30 minutes, 60 minutes, and 90 minutes after sugar administration. In order to explore the effect of long-term administration on glucose tolerance, 2 g/kg of sugar was orally administered again […] the administration of the compound, and the blood glucose changes were measured at 180 min, 195 min, 210 min, 240 min, and 270 min.

hERG potassium channels = hERG potassium channels (Homo sapiens, UniProt Q12809); test: cell-based
Procedure: CHO cells expressing hERG protein were cultured in 175 cm^2 culture flasks. When the cell density grew to 60-80%, the culture medium was removed, the cells were washed once with 7 mL PBS, and then 3 mL Detachin was added for digestion. After digestion was complete, 7 mL of culture medium was added to neutralize, then centrifuged. The supernatant was aspirated, and 5 mL of culture medium was added to resuspend to ensure that the cell density is 2-5×10^6/mL.
Both the single-cell high-impedance sealing and whole-cell mode formation processes were automatically completed by the Qpatch instrument. After obtaining the whole-cell recording mode, the cell was clamped at -80 mV. Before a 5-second +20 mV depolarizing stimulus was given, a 50-ms -50 mV pre-voltage was given, and then the cell was repolarized to -50 mV for 5 seconds and then returned to -80 mV. This voltage stimulation was applied every 15 seconds. After recording for 2 minutes, the extracellular solution was recorded for 2 minutes. Then the drug administration process began. The compound concentration started from the lowest tested concentration. Each tested concentration was given for 2 minutes. […] At least three cells were tested for each concentration (n≥3).
The compound stock solution was diluted with extracellular fluid, 5 µL of 20 mM compound stock solution was added to 2495 µL extracellular fluid, diluted 500 times to 40 µM, and then serially diluted 3 times in extracellular fluid containing 0.2% DMSO (v/v) to obtain the final concentration to be tested.
The experimental data were analyzed by XLFit software.

T1 sequence (P43220 24-463): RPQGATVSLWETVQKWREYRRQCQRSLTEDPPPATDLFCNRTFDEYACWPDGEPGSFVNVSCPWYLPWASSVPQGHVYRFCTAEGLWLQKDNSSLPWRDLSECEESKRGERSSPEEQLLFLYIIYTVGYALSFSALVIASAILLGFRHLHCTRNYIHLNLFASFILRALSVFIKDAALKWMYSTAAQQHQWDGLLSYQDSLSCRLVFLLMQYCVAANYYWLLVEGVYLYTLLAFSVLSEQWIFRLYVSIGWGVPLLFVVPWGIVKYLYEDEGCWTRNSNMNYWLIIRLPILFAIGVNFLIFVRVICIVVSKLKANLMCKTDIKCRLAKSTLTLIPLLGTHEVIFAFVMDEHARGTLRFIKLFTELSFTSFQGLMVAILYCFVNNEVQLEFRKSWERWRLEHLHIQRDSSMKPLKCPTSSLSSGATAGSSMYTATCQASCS
Chain of hERG potassium channels (Q12809 whole entry): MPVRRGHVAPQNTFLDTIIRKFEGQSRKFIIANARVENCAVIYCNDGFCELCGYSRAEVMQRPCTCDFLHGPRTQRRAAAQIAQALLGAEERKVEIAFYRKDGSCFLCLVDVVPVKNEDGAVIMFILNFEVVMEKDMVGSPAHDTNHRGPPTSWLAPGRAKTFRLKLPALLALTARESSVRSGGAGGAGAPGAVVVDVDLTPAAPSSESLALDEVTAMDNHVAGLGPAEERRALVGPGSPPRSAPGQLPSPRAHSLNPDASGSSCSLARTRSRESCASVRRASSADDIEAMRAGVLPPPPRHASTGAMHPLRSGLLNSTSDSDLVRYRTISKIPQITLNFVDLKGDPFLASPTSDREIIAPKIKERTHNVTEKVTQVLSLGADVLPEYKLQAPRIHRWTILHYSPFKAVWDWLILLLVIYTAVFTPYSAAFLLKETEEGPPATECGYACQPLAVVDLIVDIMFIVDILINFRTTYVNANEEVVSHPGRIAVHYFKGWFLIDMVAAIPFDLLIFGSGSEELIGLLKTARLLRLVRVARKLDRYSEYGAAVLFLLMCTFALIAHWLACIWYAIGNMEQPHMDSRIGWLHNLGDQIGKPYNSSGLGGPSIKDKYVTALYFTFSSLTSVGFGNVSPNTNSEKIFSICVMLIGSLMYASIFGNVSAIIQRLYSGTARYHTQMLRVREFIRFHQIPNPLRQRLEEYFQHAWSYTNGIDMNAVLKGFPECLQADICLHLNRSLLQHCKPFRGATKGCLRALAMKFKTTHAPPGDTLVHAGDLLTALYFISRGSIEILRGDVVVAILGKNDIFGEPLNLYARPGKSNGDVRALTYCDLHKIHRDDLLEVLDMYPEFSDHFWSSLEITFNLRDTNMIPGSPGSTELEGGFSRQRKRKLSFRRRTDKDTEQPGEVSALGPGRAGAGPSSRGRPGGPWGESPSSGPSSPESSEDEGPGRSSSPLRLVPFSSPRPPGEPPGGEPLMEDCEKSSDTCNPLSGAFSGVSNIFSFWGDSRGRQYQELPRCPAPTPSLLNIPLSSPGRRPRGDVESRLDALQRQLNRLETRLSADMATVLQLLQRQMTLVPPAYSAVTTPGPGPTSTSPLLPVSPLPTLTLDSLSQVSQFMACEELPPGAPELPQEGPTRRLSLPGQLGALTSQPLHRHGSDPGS

Structure (SMILES) | EC50 (human GLP-1 receptor) [nM] | Emax (β-arrestin 1) [%] | Emax (β-arrestin 2) [%] | IC50 (hERG potassium channels) [nM] | further results
[2H]C([2H])([2H])C([2H])([2H])Oc1cc(C(=O)O)cc2c1nc(CN1CCN(c3cccc4c3O[C@@](C)(c3ccc(C(F)(F)F)cc3F)O4)C=N1)n2C[C@@H]1CCO1 [Compound 82-1, 4-(ethoxy-d5)-2-((4-((S)-2-(2-fluoro-4-(trifluoromethyl)phenyl)-2-methylbenzo[d][1,3]dioxol-4-yl)-5,6-dihydro-1,2,4-triazin-1(4H)-yl)methyl)-1-(((S)-oxetan-2-yl)methyl)-1H-benzo[d]imidazole-6-carboxylic acid] | 0.0051 |  |  |  | duration of the food intake reducing effect (hGLP-1R KI mice): 24 h; food intake (hGLP-1R KI mice): significantly reduce the food intake
N#Cc1ccc(COc2cccc(C3CCN(Cc4nc5ccc(C(=O)O)cc5n4C[C@@H]4CCO4)CC3)n2)c(F)c1 [PF-06882961, reference compound] |  | 75 to 80 | 75 to 80 |  | weight gain of HFD-fed mice ([1]; 30 mg/kg by gavage once a day, 15 days): effectively inhibit the weight gain; reduce body weight compared with the blank control group ([1]; 30 mg/kg once a day, after 15 days of administration, HFD): 10.2%
COc1cc(C#N)ccc1COc1cccc(C2CCN(Cc3nc4c(OC)cc(C(=O)O)cc4n3C[C@@H]3CCO3)CC2)n1 [Compound 4, (S)-2-((4-(6-((4-cyano-2-methoxybenzyl)oxy)pyridin-2-yl)piperidin-1-yl)methyl)-4-methoxy-1-(oxetan-2-ylmethyl)-1H-benzo[d]imidazole-6-carboxylic acid] |  | 30 to 50 | 30 to 50 |  | 
CCCOc1cc(C(=O)O)cc2c1nc(CN1CCC(c3cccc(OCc4ccc(C#N)cc4F)n3)CC1)n2C[C@@H]1CCO1 [Compound 3, (S)-2-((4-(6-((4-cyano-2-fluorobenzyl)oxy)pyridin-2-yl)piperidin-1-yl)methyl)-1-(oxetan-2-ylmethyl)-4-propoxy-1H-benzo[d]imidazole-6-carboxylic acid] | 0.0064 | 30 to 50 | 30 to 50 |  | 
CCOc1cc(C(=O)O)cc2c1nc(CN1CCN(c3cccc4c3O[C@@](C)(c3ccc(C(F)(F)F)cc3F)O4)C=N1)n2C[C@@H]1CCO1 [Compound 81-1, 4-ethoxy-2-((4-((S)-2-(2-fluoro-4-(trifluoromethyl)phenyl)-2-methylbenzo[d][1,3]dioxol-4-yl)-5,6-dihydro-1,2,4-triazin-1(4H)-yl)methyl)-1-(((S)-oxetan-2-yl)methyl)-1H-benzo[d]imidazole-6-carboxylic acid] | 0.0018 |  |  |  | inhibitory effect on eating compared with Tris salt of positive control PF-06882961 at the same dose (hGLP-1R KI mice; at 5, 12 and 24 hours): significantly better than; duration of the food intake reducing effect (hGLP-1R KI mice): 24 h; food intake (hGLP-1R KI mice): significantly reduce the food intake
COc1cc(Cl)ccc1COc1cccc(N2C=NN(Cc3nc4c(OC)cc(C(=O)O)cc4n3C[C@@H]3CCO3)CC2)n1 [Compound 20, (S)-2-((4-(6-((4-chloro-2-methoxybenzyl)oxy)pyridin-2-yl)-5,6-dihydro-1,2,4-triazin-1(4H)-yl)methyl)-4-methoxy-1-(oxetan-2-ylmethyl)-1H-benzo[d]imidazole-6-carboxylic acid] |  | 30 to 50 | 30 to 50 | > 40000 | effect compared with positive control PF-06882961 ammonium salt at the same dose ([2]; 1 mg/kg oral, oral glucose tolerance test): better than the positive control PF-06882961 ammonium salt; blood glucose area under the curve ([2]; ammonium salt, orally administered at 1 mg/kg, AUC(0-90), vs blank control): significantly reduce; blood glucose concentration ([2]; ammonium salt, orally administered at 1 mg/kg, vs blank control): significantly reduce
O=C(O)c1cc(F)c2nc(CN3CCN(c4cccc(OCc5ccc(Cl)cc5F)n4)C=N3)n(C[C@@H]3CCO3)c2c1 [CN2022114139828 , Compound 2, reference compound] |  | 75 to 80 | 75 to 80 |  | 
CCOc1cc(C(=O)O)cc2c1nc(CN1CCN(c3cccc(OCc4ccc(C#N)cc4F)n3)C=N1)n2C[C@@H]1CCO1 [Compound 9, (S)-2-((4-(6-((4-cyano-2-fluorobenzyl)oxy)pyridin-2-yl)-5,6-dihydro-1,2,4-triazin-1(4H)-yl)methyl)-4-ethoxy-1-(oxetan-2-ylmethyl)-1H-benzo[d]imidazole-6-carboxylic acid] | 0.0012 |  |  | > 40000 | 
COc1cc(C(=O)O)cc2c1nc(CN1CCN(c3cccc4c3OC(C)(c3ccc(Cl)cc3F)O4)C=N1)n2C[C@@H]1CCO1 (stereo partly drawn) [Compound 63, 2-((4-(2-(4-chloro-2-fluorophenyl)-2-methylbenzo[d][1,3]dioxol-4-yl)-5,6-dihydro-1,2,4-triazin-1(4H)-yl)methyl)-4-methoxy-1-(((S)-oxetan-2-yl)methyl)-1H-benzo[d]imidazole-6-carboxylic acid] | 0.0152 |  |  | > 40000 | 
